Source: patent EP4707289A1, “STEROID-CATIONIC LIPID COMPOUND AND USE THEREOF” (priority 2023, dated 2024)

What follows are compounds tested on IL-6. Conditions: three-component LNP based on the compound, SARS-CoV-2 antigen mRNA, 30 µg intramuscular; compared with four-component LNP of ALC-0315; FIG. 4.

Structure (SMILES) | expression levels of the systemic inflammatory factor IL-6
CCCCCCCCC(CCCCCC)C(=O)OCCCCCCN(CCCCO)CCCCCCOC(=O)O[C@H]1CC[C@@]2(C)C(=CC[C@H]3[C@@H]4CC[C@H]([C@H](C)CCCC(C)C)[C@@]4(C)CC[C@@H]32)C1 (stereo partly drawn) [Compound 1] | significantly reduced
CCCCCCCCC(CCCCCC)C(=O)OCCCCCCN(CCCCCCOC(=O)O[C@H]1CC[C@@]2(C)C(=CC[C@H]3[C@@H]4CC[C@H]([C@H](C)CCCC(C)C)[C@@]4(C)CC[C@@H]32)C1)CCCn1ccnc1 (stereo partly drawn) [Compound 6] | significantly reduced
CCCCCCCCC(CCCCCC)C(=O)OCCCCCCN(CCCn1ccnc1)CCOC(=O)O[C@H]1CC[C@@]2(C)C(=CC[C@H]3[C@@H]4CC[C@H]([C@H](C)CCCC(C)C)[C@@]4(C)CC[C@@H]32)C1 (stereo partly drawn) [Compound 11] | significantly reduced
